The values below come from patent US8846746B2, “Pyrazole compound and pharmaceutical use thereof” (Japan Tobacco Inc., priority 2011, dated 2014).

The target in one test is human SGLT1 (Homo sapiens (Human), UniProt P13866). Briefly: SGLT1 inhibitory activity: 14C-AMG uptake into CHO-K1 cell line stably expressing human SGLT1. It counts as cell-based. To be noted: 14C-AMG uptake, CHO-K1 cells stably expressing human SGLT1. The method, boiled down: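 Human SGLT1 was stably expressed in CHO-K1 cells. Cells were first held 20 min in sodium-free buffer, then exposed to compound in Na(+)/BSA buffer with tracer and AMG (2 mM in the added solution).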
Sequence of human SGLT1 (P13866 whole entry): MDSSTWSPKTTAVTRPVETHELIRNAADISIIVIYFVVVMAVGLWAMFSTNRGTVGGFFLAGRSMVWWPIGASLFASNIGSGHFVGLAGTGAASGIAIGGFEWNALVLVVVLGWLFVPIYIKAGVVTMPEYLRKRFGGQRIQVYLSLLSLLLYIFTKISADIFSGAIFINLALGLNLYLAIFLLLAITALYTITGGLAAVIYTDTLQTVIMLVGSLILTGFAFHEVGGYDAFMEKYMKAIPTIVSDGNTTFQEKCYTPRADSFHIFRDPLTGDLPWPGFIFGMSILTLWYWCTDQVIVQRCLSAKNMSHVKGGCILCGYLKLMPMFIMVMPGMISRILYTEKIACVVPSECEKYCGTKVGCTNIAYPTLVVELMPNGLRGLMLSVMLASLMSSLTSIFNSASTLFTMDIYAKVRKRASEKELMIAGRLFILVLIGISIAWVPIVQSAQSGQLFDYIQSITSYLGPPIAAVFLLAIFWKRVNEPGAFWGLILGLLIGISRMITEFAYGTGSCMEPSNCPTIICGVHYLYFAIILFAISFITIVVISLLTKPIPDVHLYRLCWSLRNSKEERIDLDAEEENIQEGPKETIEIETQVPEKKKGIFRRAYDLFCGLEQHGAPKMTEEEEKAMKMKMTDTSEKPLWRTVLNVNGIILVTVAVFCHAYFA
On to `CC(C)(C)CS(=O)(=O)c1cccc(-c2cc(NC(=O)[C@@H]3CNC(=O)C3)nn2-c2ccccc2)c1` [Example 540], for which the half-maximal inhibitory concentration (IC50) was determined as 48 nM. On the same count and under the same terms, the same measure for `CC(C)CSc1cccc(-c2cc(NC(=O)[C@@H]3CNC(=O)C3)nn2-c2ccccc2)c1` [Example 546]: 5.7 nM; for `C[C@@H](OCc1cccc(-c2cc(NC(=O)[C@@H]3CCC(=O)N3)nn2-c2ccccc2)c1)C(F)(F)F` [Example 547]: 43 nM; for `C[C@@H](OCc1cc(F)cc(-c2cc(NC(=O)[C@@H]3CCC(=O)N3)nn2-c2ccccc2)c1)C(F)(F)F` [Example 555]: 24 nM. For the compound `O=C1NC[C@@H](C(=O)Nc2cc(-c3cccc(COCC(F)(F)F)c3)n(-c3ccccc3)n2)N1` [Example 558], the IC50 turned out to be 38 nM.

Turning to `C[C@H]1C(=O)NC[C@@H]1C(=O)Nc1cc(-c2cccc(COCC(F)(F)F)c2)n(-c2ccccc2)n1` [Example 559], the IC50 came to 7.7 nM. In turn, `C[C@@H](OCc1cccc(-c2cc(NC(=O)[C@H]3CNC(=O)C3)nn2-c2ccccc2)c1)C(F)(F)F` [Example 561] had an IC50 of 5.5 nM. In turn, `C[C@@H](OCc1cccc(-c2cc(NC(=O)[C@@H]3CNC(=O)N3)nn2-c2ccccc2)c1)C(F)(F)F` [Example 562] returned an IC50 of 13 nM. Same read-out and setting: under `C[C@@H]1C(=O)NC[C@H]1C(=O)Nc1cc(-c2cccc(CO[C@H](C)C(F)(F)F)c2)n(-c2ccccc2)n1` [Example 564] stands 45 nM; under `C[C@@H](OCc1cccc(-c2cc(NC(=O)C3CCC(=O)NC3)nn2-c2ccccc2)c1)C(F)(F)F` (some centres unmarked) [Example 565], 11 nM; under `CC(C)(OCc1cc(F)cc(-c2cc(NC(=O)[C@@H]3CNC(=O)C3)nn2-c2ccccc2)c1)C(F)(F)F` [Example 567], 14 nM.

In turn, `C[C@@H](OCc1cc(F)cc(-c2cc(NC(=O)[C@H]3CNC(=O)N3)nn2-c2ccc(Cl)cc2)c1)C(F)(F)F` [Example 570] had a half-maximal inhibitory concentration (IC50) of 8.7 nM. The same measure, in the same setting: the same measure for `C[C@@H](OCc1cc(F)cc(-c2cc(NC(=O)[C@H]3CNC(=O)O3)nn2-c2ccc(Cl)cc2)c1)C(F)(F)F` [Example 571]: 9.3 nM; for `C[C@@H](OCc1cc(F)cc(-c2cc(NC(=O)C3CCC(=O)NC3)nn2-c2ccc(Cl)cc2)c1)C(F)(F)F` (some centres unmarked) [Example 572]: 5.1 nM; for `O=C1C[C@H](C(=O)Nc2cc(-c3cc(F)cc(COC(C(F)(F)F)C(F)(F)F)c3)n(-c3ccc(F)cc3)n2)CN1` [Example 573]: 13 nM.

For the compound `CC(C)(OCc1cccc(-c2cc(NC(=O)[C@@H]3CNC(=O)C3)nn2-c2ccc(F)cc2)c1)C(F)(F)F` [Example 574], half-maximal inhibition (IC50) was put at 17 nM. In turn, `CC(C)(OCc1cccc(-c2cc(NC(=O)[C@@H]3CNC(=O)C3)nn2-c2ccc(Cl)cc2)c1)C(F)(F)F` [Example 575] gave an IC50 of 12 nM.

The compound `O=C1C[C@H](C(=O)Nc2cc(-c3cccc(COC(C(F)(F)F)C(F)(F)F)c3)n(-c3ccc(Cl)cc3)n2)CN1` [Example 576] gave an IC50 of 19 nM.

With `C[C@@H](OCc1cc(Cl)cc(-c2cc(NC(=O)[C@@H]3CNC(=O)C3)nn2-c2ccccc2F)c1)C(F)(F)F` [Example 577], half-maximal inhibition (IC50) was put at 6.7 nM. On the same count and under the same terms, under `C[C@@H](OCc1cc(Cl)cc(-c2cc(NC(=O)[C@@H]3CNC(=O)C3)nn2-c2cccc(F)c2)c1)C(F)(F)F` [Example 578] stands 8.5 nM; under `O=C1C[C@H](C(=O)Nc2cc(-c3cc(Cl)cc(COC(C(F)(F)F)C(F)(F)F)c3)n(-c3ccccc3)n2)CN1` [Example 579], 23 nM. Still for that read-out and setting: the same measure for `CC(C)(OCc1cc(F)cc(-c2cc(NC(=O)[C@@H]3CNC(=O)C3)nn2-c2ccc(Cl)cc2)c1)C(F)(F)F` [Example 580]: 7.6 nM. Same read-out and setting: the same measure for `CC(C)(OCc1cc(Cl)cc(-c2cc(NC(=O)[C@@H]3CNC(=O)C3)nn2-c2ccc(F)cc2)c1)C(F)(F)F` [Example 581]: 12 nM. Compound `C[C@@H](OCc1cc(Cl)cc(-c2cc(NC(=O)[C@@H]3CNC(=O)C3)nn2C2CCOCC2)c1)C(F)(F)F` [Example 584] returned an IC50 of 84 nM. On the same count and under the same terms, under `O=C1C[C@H](C(=O)Nc2cc(-c3cc(F)cc(COC(C(F)(F)F)C(F)(F)F)c3)n(-c3ccccc3)n2)CN1` [Example 585] stands 13 nM; under `O=C1C[C@H](C(=O)Nc2cc(-c3cc(Cl)cc(COCC(F)(F)F)c3)n(-c3ccccc3)n2)CN1` [Example 586], 46 nM. Same read-out and setting: under `O=C1C[C@H](C(=O)Nc2cc(-c3cc(Cl)cc(COCC(F)(F)F)c3)n(-c3ccccc3F)n2)CN1` [Example 587] stands 40 nM; under `O=C1C[C@H](C(=O)Nc2cc(-c3cc(Cl)cc(COCC(F)(F)F)c3)n(-c3cccc(F)c3)n2)CN1` [Example 588], 40 nM; under `O=C1C[C@H](C(=O)Nc2cc(-c3cc(Cl)cc(COCC(F)(F)F)c3)n(-c3ccc(F)cc3)n2)CN1` [Example 589], 55 nM. Regarding `C[C@@H](OCc1cccc(-c2cc(NC(=O)[C@H]3CNC(=O)N3)nn2-c2ccc(Cl)cc2)c1)C(F)(F)F` [Example 590], the midpoint of inhibition, the IC50, lay at 13 nM. For the compound `CC(C)(OCc1cc(Cl)cc(-c2cc(NC(=O)[C@H]3CNC(=O)N3)nn2-c2ccccc2)c1)C(F)(F)F` [Example 594], inhibition was half-maximal at 66 nM (IC50).

For the compound `CC(C)(OCc1cc(F)cc(-c2cc(NC(=O)[C@@H]3CNC(=O)C3)nn2-c2ccc(F)cc2)c1)C(F)(F)F` [Example 595], the half-inhibitory concentration (IC50) is 10 nM.

The compound `O=C1NC[C@H](C(=O)Nc2cc(-c3cc(F)cc(COCC(F)(F)F)c3)n(-c3ccc(Cl)cc3)n2)N1` [Example 596] had a 50% inhibitory concentration (IC50) of 35 nM. As for `C[C@@H](OCc1cc(Cl)cc(-c2cc(NC(=O)[C@H]3CNC(=O)N3)nn2-c2ccccc2)c1)C(F)(F)F` [Example 597], the IC50 is 60 nM. Still for that read-out and setting: the same measure for `C[C@@H](OCc1cc(Cl)cc(-c2cc(NC(=O)[C@H]3CNC(=O)N3)nn2-c2ccc(F)cc2)c1)C(F)(F)F` [Example 598]: 47 nM; for `CC(C)(OCc1cccc(-c2cc(NC(=O)[C@H]3CNC(=O)N3)nn2-c2ccc(Cl)cc2)c1)C(F)(F)F` [Example 599]: 27 nM.

The same test, now with this note: CHO-K1, at 0.00265 uM.
For the compound `C[C@H]1C(=O)NC[C@@H]1C(=O)Nc1cc(-c2cccc(CO[C@H](C)C(F)(F)F)c2)n(-c2ccccc2)n1` [Example 563], testing at 0.00265 µM gave an inhibition of 57%.

Staying with this test, now noted: CHO-K1, at 0.1 uM.
`O=C1C[C@H](C(=O)Nc2cc(-c3cccc(CO[C@@H]4CCOC4)c3)n(-c3ccccc3)n2)CN1` [Example 536] had an inhibition at 0.1 µM of 15%.

`O=C1C[C@H](C(=O)Nc2cc(-c3cccc(CO[C@H]4CCOC4)c3)n(-c3ccccc3)n2)CN1` [Example 537] showed an inhibition at 0.1 µM of 1%.

With `O=C1C[C@H](C(=O)Nc2cc(-c3cccc(CO[C@@H]4CCCOC4)c3)n(-c3ccccc3)n2)CN1` [Example 538], at 0.1 µM the inhibition was 33%.

Turning to `O=C1C[C@H](C(=O)Nc2cc(-c3cccc(CO[C@H]4CCCOC4)c3)n(-c3ccccc3)n2)CN1` [Example 539], testing at 0.1 µM gave an inhibition of 35%. In the case of `CCS(=O)(=O)Cc1cccc(-c2cc(NC(=O)[C@@H]3CNC(=O)C3)nn2-c2ccccc2)c1` [Example 541], the inhibition at 0.1 µM was 24%. The same measure, in the same setting: the same measure for `O=C1C[C@H](C(=O)Nc2cc(-c3cccc(COC4COC4)c3)n(-c3ccccc3)n2)CN1` [Example 542]: 18%; for `O=C1C[C@H](C(=O)Nc2cc(-c3cccc(COC4CCOCC4)c3)n(-c3ccccc3)n2)CN1` [Example 543]: 15%; for `C[C@@H](OCc1cc(-c2cc(NC(=O)[C@@H]3CNC(=O)C3)nn2-c2ccccc2)cc(C(F)(F)F)c1)C(F)(F)F` [Example 544]: 21%. Same read-out and setting: the same measure for `O=C1CC[C@H](C(=O)Nc2cc(-c3cccc(COCC(F)(F)F)c3)n(-c3ccccc3)n2)N1` [Example 548]: 3%; for `O=C1CC[C@@H](C(=O)Nc2cc(-c3cccc(COCC(F)(F)F)c3)n(-c3ccccc3)n2)N1` [Example 549]: 41%.

The compound `O=C1C[C@H](C(=O)Nc2cc(-c3cccc(S(=O)(=O)CC(F)(F)F)c3)n(-c3ccccc3)n2)CN1` [Example 550] gave an inhibition at 0.1 µM of 29%. With `O=C1C[C@H](C(=O)Nc2cc(-c3cccc(S(=O)(=O)CCC(F)(F)F)c3)n(-c3ccccc3)n2)CN1` [Example 551], the inhibition at 0.1 µM came out at 42%.

In turn, `O=C1C[C@H](C(=O)Nc2cc(-c3cccc(CS(=O)(=O)CC(F)(F)F)c3)n(-c3ccccc3)n2)CN1` [Example 552] gave an inhibition at 0.1 µM of 8%.

`CC(C)CS(=O)(=O)c1cccc(-c2cc(NC(=O)[C@@H]3CNC(=O)C3)nn2-c2ccccc2)c1` [Example 553] yielded an inhibition at 0.1 µM of 31%. Same read-out and setting: the same measure for `C[C@@H](OCc1cc(F)cc(-c2cc(NC(=O)[C@H]3CCC(=O)N3)nn2-c2ccccc2)c1)C(F)(F)F` [Example 554]: 32%; for `C[C@@H](OCc1cccc(-c2cc(NC(=O)[C@H]3CCC(=O)N3)nn2-c2ccccc2)c1)C(F)(F)F` [Example 556]: 23%. Same read-out and setting: under `C[C@@H](OCc1cc(-c2cc(NC(=O)[C@@H]3CNC(=O)C3)nn2-c2ccccc2)ccc1F)C(F)(F)F` [Example 557] stands 48%; under `CC(C)(C)S(=O)(=O)c1cccc(-c2cc(NC(=O)[C@@H]3CNC(=O)C3)nn2-c2ccccc2)c1` [Example 569], 29%; under `C[C@@H](OCc1cccc(-c2cc(NC(=O)[C@@H]3CNC(=O)C3)nn2C2CCOCC2)c1)C(F)(F)F` [Example 582], 47%. Same read-out and setting: under `C[C@@H](OCc1cc(F)cc(-c2cc(NC(=O)[C@@H]3CNC(=O)C3)nn2C2CCOCC2)c1)C(F)(F)F` [Example 583] stands 48%.

Still in this test, the particulars now being: CHO-K1, at 0.3 uM.
In the case of `CC(C)S(=O)(=O)Cc1cccc(-c2cc(NC(=O)[C@@H]3CNC(=O)C3)nn2-c2ccccc2)c1` [Example 566], the inhibition at 0.3 µM turned out to be 22%. On the same count and under the same terms, the same measure for `CC(C)S(=O)(=O)c1cccc(-c2cc(NC(=O)[C@@H]3CNC(=O)C3)nn2-c2ccccc2)c1` [Example 568]: 27%.

The IC50 is the concentration that inhibits the measured activity by half. A lower IC50 goes with greater potency in that assay. What is called inhibition is the relative decrease from the control value, in per cent. Low values mean little suppression, high ones strong suppression.
